Source: ChEMBL document CHEMBL1201862, “PubChem BioAssay data set” (2004)
Activity calls are given as the source filed them.

Tests used:
Kallikrein-7 = Kallikrein-7 (Homo sapiens, UniProt P49862); test: Fluorescence Intensity-based biochemical primary high throughput dose response assay to identify activators of kallikrein-7 (K7) zymogen.
[1] = target: T1, Nuclear receptor subfamily 0 group B member 1 (Homo sapiens, UniProt P51843); format: functional, cell-based;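 further: HEK293T cells transfected with SF-1 and DAX-1 plus StAR promoter luciferase reporter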
T1 sequence (P51843 whole entry): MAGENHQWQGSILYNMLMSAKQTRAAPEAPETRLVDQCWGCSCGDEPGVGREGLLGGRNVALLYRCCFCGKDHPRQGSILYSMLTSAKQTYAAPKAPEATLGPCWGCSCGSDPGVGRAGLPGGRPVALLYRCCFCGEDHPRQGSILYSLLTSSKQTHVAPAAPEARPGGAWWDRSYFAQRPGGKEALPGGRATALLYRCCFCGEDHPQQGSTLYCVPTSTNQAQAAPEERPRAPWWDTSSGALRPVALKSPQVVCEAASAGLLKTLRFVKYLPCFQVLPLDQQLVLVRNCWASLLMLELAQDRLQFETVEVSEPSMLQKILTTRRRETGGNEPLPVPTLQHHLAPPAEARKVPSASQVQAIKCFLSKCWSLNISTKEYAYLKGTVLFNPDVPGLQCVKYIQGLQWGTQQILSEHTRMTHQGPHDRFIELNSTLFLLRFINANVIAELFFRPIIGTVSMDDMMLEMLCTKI

[2] = A549 cell cytotoxicity, dose response, cytotoxicity control, plate reader, cherry-pick, antagonist series (AID 743412); format: functional, cell-based
[3] = HepG2 cell cytotoxicity, dose response, cytotoxicity control, plate reader, cherry-pick, antagonist series (AID 743416); format: functional, cell-based
cells [4] = format: functional, cell-based
[5] = LGR2 antagonists, dose response, cell-based, HEK293, CRE-luciferase reporter, cherry pick, set 2 (AID 743343); format: functional;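 further: transfected cells were stimulated with diluted bursicon conditioned medium after compound addition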
[6] = HEK293 cell cytotoxicity, dose response, cytotoxicity control, plate reader, cherry-picked samples (AID 743446); format: functional, cell-based
[7] = MC4R antagonists, dose response, counter-screen for LGR2 antagonist project, cell-based, plate reader, cherry pick (AID 743444); format: functional;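 further: transfected HEK 293 cells stimulated with alpha-MSH peptide; potency of inhibitors of the alpha-MSH evoked signal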
HeLa = test: HeLa cell cytotoxicity, dose response, cytotoxicity control, ATP luminescence, cherry-pick samples (AID 687004); format: functional, cell-based; details: Homo sapiens
Galanin receptor type 3 = Galanin receptor type 3 (Homo sapiens, UniProt O60755); test: Fluorescence-based cell-based primary high throughput dose response assay to identify antagonists of the Galanin Receptor 3 (GalR3).; format: functional
cells [8] = format: functional, cell-based; details: HEK-CNG
Major prion protein = Major prion protein (Homo sapiens, UniProt P04156); format: functional, cell-based
cells [9] = test: cells
[10] = target: Peroxisome proliferator-activated receptor gamma/Nuclear receptor coactivator 3 (Homo sapiens, UniProt P37231); test: (§1) TR-FRET dose response biochemical High Throughput Screening assay for agonists of the steroid receptor coactivator 3 (SRC-3) recruitment by the peroxisome proliferator-activated receptor gamma (PPAR gamma): non-selective agonists. [Related pubchem assays: 1301 (Confirmation screen.), 1048 (Primary screen.)]; format: functional
[11] = target: Peroxisome proliferator-activated receptor gamma/Nuclear receptor coactivator 1 (Homo sapiens, UniProt P37231); test: as §1, with “1 (SRC-1)” for “3 (SRC-3)”, “assays (depositor defined):AID1300, AID1808, AID504735, AID631]” for “assays: 1301 (Confirmation screen.), 1048 (Primary screen.)]”; format: protein assay
[12] = target: Peroxisome proliferator-activated receptor gamma/Nuclear receptor coactivator 2 (Homo sapiens, UniProt P37231); test: TR-FRET dose response biochemical High Throughput Screening assay for agonists of the steroid receptor coactivator 2 (SRC-2) recruitment by the peroxisome proliferator-activated receptor gamma (PPAR gamma): non-selective agonists. [Related pubchem assays: 1297, 1032 ]; format: functional
[13] = Luminescence-based cell-based high throughput dose response assay to identify activators of the DAF-12 from the parasite S. stercoralis (ssDAF-12).; format: functional
[14] = target: Matrix metalloproteinase-14 (Homo sapiens, UniProt P50281); test: Dose Response confirmation of uHTS hits for a small molecule inhibitors of MT1-MMP activation in a fluorescence assay set 1.; format: functional
[15] = target: T2, Trace amine-associated receptor 1 (Homo sapiens, UniProt Q96RJ0); test: Fluorescence-based cell-based high throughput dose response assay to identify agonists of the human trace amine associated receptor 1 (TAAR1).; format: functional
T2 sequence (Q96RJ0 whole entry): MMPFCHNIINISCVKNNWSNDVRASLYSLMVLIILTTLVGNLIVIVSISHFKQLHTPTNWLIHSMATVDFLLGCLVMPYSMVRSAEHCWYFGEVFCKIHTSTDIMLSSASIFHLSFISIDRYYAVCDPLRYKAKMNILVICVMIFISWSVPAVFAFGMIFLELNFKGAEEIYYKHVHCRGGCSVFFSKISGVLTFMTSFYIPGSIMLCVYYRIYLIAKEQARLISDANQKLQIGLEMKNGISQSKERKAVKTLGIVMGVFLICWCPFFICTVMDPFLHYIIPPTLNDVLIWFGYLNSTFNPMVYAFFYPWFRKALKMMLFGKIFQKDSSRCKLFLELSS

[16] = target: T2, Trace amine-associated receptor 1; test: Counterscreen for agonists of the human trace amine associated receptor 1 (hTAAR1): Fluorescence-based cell-based high throughput dose response assay to identify hTAAR1 agonist that also desensitize TAAR1 receptor response.; format: functional
cells [17] = format: functional, cell-based; remark: listed apart in the source
cells [18] = format: functional, cell-based; remark: listed apart in the source
Beta-galactosidase = Beta-galactosidase (Escherichia coli, UniProt Q8VNN2); test: Dose response counterscreen for EBI2 assay utilizing the enzyme, b-galactosidase.; format: functional
[19] = target: 5-hydroxytryptamine receptor 2A (Mus musculus, UniProt P35363); format: functional, cell-based;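 further: CHO-K1 cells with tagged receptor and beta-arrestin; agonist potency measured as compound-induced activation of the receptor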
Mu-type opioid receptor = Mu-type opioid receptor (Homo sapiens, UniProt P35372); format: functional, cell-based;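 further: U2OS cells with beta-arrestin recruitment to OPRM1 by beta-gal complementation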

N#Cc1ccc2c(c1)nc1ccccn12
EC50 (Kallikrein-7): > 69.6 µM (inactive)

c1ccc(Nc2nnc(-c3ccc4c(c3)OCO4)o2)cc1
IC50 [1]: > 0.0926 µM (active)
AC50 [2]: 10.8 µM (active)
AC50 [3]: 12.3 µM (active)
IC50 (cells [4]): > 67.5 µM (inactive)
AC50 [5]: 2.58 µM (active)
AC50 [6]: 6.3 µM (active)
AC50 [7]: 2.76 µM (active)

COc1ccc(/C=C(/CC(=O)NCc2ccc(Cl)cc2)c2nc3ccccc3s2)cc1
EC50 (Kallikrein-7): 2.56 µM (active)

COc1ccc(N(CC(=O)NCCSCc2ccc(C)cc2)S(=O)(=O)c2ccccc2)cc1
AC50 (HeLa): > 52 µM (inactive)

Cc1ccc(CCNc2ncnc(Cl)c2N)cc1
IC50 (Galanin receptor type 3): 0.626 µM (active)
EC50 (cells [8]): > 29.9 µM (inactive)

Cc1ccc(Sc2c(O)c3ccccc3n(C)c2=O)cc1
IC50 (Major prion protein): 7.12 µM (active)
IC50 (cells [9]): > 138 µM (inactive)
EC50 [10]: > 79.4 µM (not active)
EC50 [11]: > 79.4 µM (inactive)
EC50 [12]: > 79.4 µM (not active)

COc1ccc(-c2cn3ccccc3n2)cc1OC
IC50 [13]: > 67.5 µM (inactive)

COc1cccc(-c2ccc3c(c2)[C@H]2[C@H](CCN2C(=O)Cc2ccncc2)[C@H](CO)N3C)c1
AC50 (HeLa): > 52 µM (inactive)

CN1C2=CC=CC=CC2=[N+](C)C12C=CC(=[N+]([O-])[O-])C=C2[N+](=O)[O-] (configuration not stated)
IC50 [14]: 54.2 µM (inactive)

Cc1cc(C)c(C#N)c(SCC(=O)c2cc(C)n(CCc3ccccc3)c2C)n1
EC50 [15]: 1.15 µM (active)
IC50 [16]: 4.68 µM (active)
IC50 (cells [17]): > 29.9 µM (inactive)
EC50 (cells [18]): > 29.9 µM (inactive)

Cc1ccc(/C=C/C(=O)N2CCCN(C(=O)/C=C/c3ccc(C)cc3)CC2)cc1
IC50 (Beta-galactosidase): > 80 µM (inactive)

CC1CC(C)CN(CCOc2cccc(Cl)c2Cl)C1 (configuration not stated)
EC50 [19]: 0.281 µM (active)
EC50 (Mu-type opioid receptor): 92.5 µM (inactive)
